Tests used:
[1] = tested on: MV4-11 myeloid leukemia cells; test: Cell growth; format: cell-based; conditions: read-out: cell growth IC50; MV4-11 cells; 5 days
[2] = tested on: TF-1 cells; test: Cell growth; format: cell-based, human; conditions: read-out: cell growth IC50, medium with GM-CSF, 5 days
[3] = tested on: TF1/SHP2^E69K cells; test: Cell growth in GM-CSF free medium; format: cell-based, human; conditions: read-out: cell growth IC50, 5 days
[4] = tested on: SHP2-knocked out TF-1 cell lines (TF1/KO1, TF1/KO2); test: Cell growth and cell lysate analysis in SHP2 knockout cells; format: cell-based, human; conditions: medium with GM-CSF
[5] = tested on: MV4-11 cells; test: Immunoblot analysis of cell lysates; format: cell-based
[6] = tested on: TF-1 cells; test: Immunoblot analysis of cell lysates; format: cell-based, human
[7] = tested on: TF1/SHP2^E69K cells; test: Immunoblot analysis of cell lysates; format: cell-based, human; conditions: 2 days of SHP099 treatment
[8] = tested on: TF1/SHP2^D61Y cells; test: Immunoblot analysis of cell lysates; format: cell-based, human; conditions: 2 days of SHP099 treatment
[9] = tested on: TF1/SHP2^A72V cells; test: Immunoblot analysis of cell lysates; format: cell-based, human; conditions: 2 days of SHP099 treatment
[10] = tested on: TF1/SHP2^E76K cells; test: Immunoblot analysis of cell lysates; format: cell-based, human; conditions: 2 days of SHP099 treatment
[11] = tested on: TF1/SHP2^E76K cells; test: Methylcellulose colony formation assay; format: cell-based, human; conditions: methylcellulose culture, 10 µM SHP099, day 7
[12] = tested on: TF1/SHP2^E69K cells; test: Methylcellulose colony formation assay; format: cell-based, human; conditions: methylcellulose culture, 10 µM SHP099, day 7

- IC50 [1]: 320 ± 110 nM
Compound: CC1(N)CCN(c2cnc(-c3cccc(Cl)c3Cl)c(N)n2)CC1 [SHP099]
- IC50 [2]: 1730 ± 520 nM
- IC50 [3]: 1460 ± 460 nM
- effects in SHP2-knocked out TF-1 cell lines [4]: little effects
- Bcl-XL level [5]: reduced
- PARP cleavage [5]: induced
- pERK1/2 level [5]: reduced
- Bcl-XL level [6]: reduced
- PARP cleavage [6]: induced
- active ERK [6]: inhibited
- Bcl-XL level [7]: reduced
- PARP cleavage [7]: induction
- pERK1/2 level [7]: reduced
- Bcl-XL level [8]: little effect
- PARP cleavage [8]: did not induce
- pERK1/2 level [8]: little effect
- Bcl-XL level [9]: little effect
- PARP cleavage [9]: did not induce
- pERK1/2 level [9]: little effect
- Bcl-XL level [10]: little effect
- PARP cleavage [10]: did not induce
- pERK1/2 level [10]: little effect
- GM-CSF hypersensitivity [11]: did not affect
- cytokine-independent colonies [11]: little effect
- GM-CSF hypersensitivity [12]: lost
- cytokine-independent colonies [12]: eliminated
